Tests used:
[1] = Pharmacokinetics (PK) study in Balb/c mice; type: in vivo; conditions: female Balb/c mice; for bioavailability: mouse, read-out: F (bioavailability); for bioavailability / F (bioavailability): PO 10 mg/kg compared with IV 1 mg/kg
Description: The example compounds were administered to female Balb/c mice via intravenous injection (IV) and gastric perfusion (PO), respectively, and their pharmacokinetic properties were investigated. The administered doses for IV and PO were 1 mg/kg and 10 mg/kg, respectively. The solvent for IV was 5% DMSO+5% Solutol (15-hydroxystearic acid polyethylene glycol ester)+90% normal saline, the solvent for PO was 0.5% MC ([…] methylcellulose). Whole blood samples were collected at various time points after IV and PO administration, and subjected to EDTA-K2 anticoagulation before test.
Whole blood samples were processed by precipitating proteins and then subjected to LC-MS/MS analysis. The pharmacokinetic parameters were calculated by the non-compartmental model using WinNonlin 6.3 software, and the results were shown in Table 6 below.

[2] = target: hERG (Homo sapiens (Human), UniProt Q12809); test: Biochemical hERG inhibition test (Predictor hERG fluorescence polarization kit); type: binding; conditions: competition with Tracer, tested at 10 μM and 1 μM
Description: Kit: Predictor™ hERG fluorescence polarization detection kit (ThermoFisher), the kit contained the following components: positive control compound hERG potassium channel blocker E4031; hERG cell membrane; affinity tracer Tracer; and hERG buffer.
hERG concentration: 1×; Tracer concentration: 1 nM; incubation time: 2 h; BMG PHERAstar FS FP.
The test was carried out according to the kit instructions, and the steps were as follows:
Positive control group: 30 μM positive control compound E4031 was used to replace the test compound, and the experimental method was the same as that of the test group.
Blank control group: hERG buffer was used to replace the test compound without the addition of hERG cell membrane, and the experimental method was the same as that of the test group.
According to the data ratio, the percent inhibition rates (%) of the compounds of the present invention to hERG at different concentrations were calculated, and the ranges of the half inhibitory concentration (IC50) of the compounds were determined.

[3] = target: TGFβR2 (Homo sapiens (Human), UniProt P37173); test: In vitro enzymatic activity inhibition test (TGFβR2), ADP-Glo Kinase Detection Kit; type: biochemical; conditions: MBP substrate, estimated from inhibition at 1000, 100, 10 nM
Description: The chemiluminescence signal values were detected after incubation at room temperature for another 30 min.

[4] = target: TGFβR1 (Homo sapiens (Human), UniProt P36897); test: In vitro enzymatic activity inhibition test (TGFβR1), ADP-Glo Kinase Detection Kit; type: biochemical; conditions: estimated from inhibition at 1000, 100, 10 nM
Description: Experimental method: According to the instructions of ADP-Glo™ Kinase Detection Kit (Promega), the inhibitory effect of the compounds of the present invention on the enzymatic activity of TGFβR1 was determined, and the steps were as follows:
TGFβR1 enzyme were pre-incubated with different concentrations of test compounds (1000 nM, 100 nM, 10 nM) at 30° C. for 30 min, TGFβR1 peptide and adenosine triphosphate (ATP) were added to initiate the reaction. The incubation was performed at 30° C. for 3 h, followed by an addition of ADP-Glo™ reagent and incubated at room temperature for 90 min, kinase detection reagent was then added. Chemiluminescence signal values were detected after incubation at room temperature for another 30 min. Taking the solvent group (DMSO) as the negative control and the buffer group (without TGFβR1 enzyme) as the blank control, the percent inhibition rates of different concentrations of compounds were calculated according to the following formula: […]
When the percent inhibition rate was between 30% and 80%, the median inhibitory concentration (IC50) or range of the compound was calculated according to the following formula:
IC50=X×(1−percent inhibition rate (%))/percent inhibition rate (%), wherein X is the concentration of the compound at which the inhibition rate is between 30% and 80%.

TGFβR1, sequence (P36897 34-503): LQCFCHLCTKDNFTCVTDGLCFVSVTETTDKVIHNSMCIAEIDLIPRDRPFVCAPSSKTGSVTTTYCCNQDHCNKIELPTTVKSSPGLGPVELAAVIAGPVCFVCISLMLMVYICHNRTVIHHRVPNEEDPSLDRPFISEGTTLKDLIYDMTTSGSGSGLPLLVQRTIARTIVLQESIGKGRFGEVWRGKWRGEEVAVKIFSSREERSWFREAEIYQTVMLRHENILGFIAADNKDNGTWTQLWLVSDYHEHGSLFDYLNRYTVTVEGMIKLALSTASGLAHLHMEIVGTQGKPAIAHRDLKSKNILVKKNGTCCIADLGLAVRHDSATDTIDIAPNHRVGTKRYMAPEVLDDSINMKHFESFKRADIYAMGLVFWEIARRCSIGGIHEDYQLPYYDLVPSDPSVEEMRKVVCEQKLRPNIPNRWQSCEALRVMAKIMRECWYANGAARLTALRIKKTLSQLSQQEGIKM
TGFβR2, sequence (P37173 23-567): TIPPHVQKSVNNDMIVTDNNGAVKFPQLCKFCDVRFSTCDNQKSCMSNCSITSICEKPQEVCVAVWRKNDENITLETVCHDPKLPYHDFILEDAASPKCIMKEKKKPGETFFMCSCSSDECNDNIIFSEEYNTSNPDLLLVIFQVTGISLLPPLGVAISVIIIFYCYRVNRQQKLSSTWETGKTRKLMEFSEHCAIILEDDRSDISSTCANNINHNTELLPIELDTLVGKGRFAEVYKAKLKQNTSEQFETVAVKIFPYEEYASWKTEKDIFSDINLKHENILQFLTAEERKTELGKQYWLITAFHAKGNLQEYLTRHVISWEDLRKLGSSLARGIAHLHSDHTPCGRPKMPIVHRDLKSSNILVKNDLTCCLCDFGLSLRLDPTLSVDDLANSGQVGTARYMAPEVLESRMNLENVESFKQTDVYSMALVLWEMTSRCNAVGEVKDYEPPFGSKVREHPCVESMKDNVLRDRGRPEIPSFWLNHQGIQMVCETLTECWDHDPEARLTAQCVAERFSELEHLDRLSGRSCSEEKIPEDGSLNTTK
hERG, sequence (Q12809 whole entry): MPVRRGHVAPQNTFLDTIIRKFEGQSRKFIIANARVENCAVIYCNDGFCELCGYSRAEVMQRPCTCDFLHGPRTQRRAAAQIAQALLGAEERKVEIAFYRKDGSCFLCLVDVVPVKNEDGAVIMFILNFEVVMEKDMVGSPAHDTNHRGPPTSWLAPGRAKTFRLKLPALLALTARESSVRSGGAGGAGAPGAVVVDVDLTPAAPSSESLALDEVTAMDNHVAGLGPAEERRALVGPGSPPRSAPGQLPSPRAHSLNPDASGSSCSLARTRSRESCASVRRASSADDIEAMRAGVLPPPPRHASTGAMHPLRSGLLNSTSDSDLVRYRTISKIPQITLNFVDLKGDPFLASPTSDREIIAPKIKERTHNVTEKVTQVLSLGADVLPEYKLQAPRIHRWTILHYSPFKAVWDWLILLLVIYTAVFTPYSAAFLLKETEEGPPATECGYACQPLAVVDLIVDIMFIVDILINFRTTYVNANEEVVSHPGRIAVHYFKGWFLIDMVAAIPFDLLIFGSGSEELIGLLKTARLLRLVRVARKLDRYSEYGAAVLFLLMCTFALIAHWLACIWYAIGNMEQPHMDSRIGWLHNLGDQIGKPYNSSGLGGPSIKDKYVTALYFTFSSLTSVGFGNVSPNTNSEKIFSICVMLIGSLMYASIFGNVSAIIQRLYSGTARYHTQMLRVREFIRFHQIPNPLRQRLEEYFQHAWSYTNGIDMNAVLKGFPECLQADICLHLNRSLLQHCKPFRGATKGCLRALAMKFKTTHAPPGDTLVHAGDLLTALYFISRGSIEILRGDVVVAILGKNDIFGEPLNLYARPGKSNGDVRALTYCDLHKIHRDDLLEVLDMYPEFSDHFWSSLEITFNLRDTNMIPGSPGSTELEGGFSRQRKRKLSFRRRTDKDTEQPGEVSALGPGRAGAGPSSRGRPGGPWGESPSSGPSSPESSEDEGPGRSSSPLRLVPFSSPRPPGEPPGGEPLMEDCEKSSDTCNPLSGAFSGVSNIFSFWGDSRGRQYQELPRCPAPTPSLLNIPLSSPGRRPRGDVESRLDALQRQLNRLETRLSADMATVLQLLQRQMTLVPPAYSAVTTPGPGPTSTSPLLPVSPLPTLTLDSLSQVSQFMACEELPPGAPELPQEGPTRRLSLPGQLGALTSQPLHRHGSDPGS

Structure (SMILES): Cc1cccc(-n2nccc2-c2ccn3ncc(C(N)=O)c3c2)n1 [Example 12, 5-(1-(6-methylpyridin-2-yl)-1H-pyrazol-5-yl)pyrazolo[1,5-a]pyridine-3-carboxamide]
- T1/2 ([1]; PO, 10 mg/kg, whole blood): 31.2 ± 10.8 min
- bioavailability ([1]; whole blood): 52.1%

Structure (SMILES): CNc1cc(-c2ccn3ncc(C(N)=O)c3c2)n(-c2cccc(C)n2)n1 [Example 8, 5-(3-(methylamino)-1-(6-methylpyridin-2-yl)-1H-pyrazol-5-yl)pyrazolo[1,5-a]pyridine-3-carboxamide]
- T1/2 ([1]; PO, 10 mg/kg, whole blood): 108 ± 21 min
- bioavailability ([1]; whole blood): 98.1%

Structure (SMILES): Cc1cccc(-n2nccc2-c2ccc3ncsc3c2)n1 [Example 1, 6-(1-(6-methylpyridin-2-yl)-1H-pyrazol-5-yl)benzo[d]thiazole]
- IC50 [2]: > 10 µM
- IC50 [3]: > 1000 nM
- IC50 [4]: 48.6 ± 18.6 nM

Structure (SMILES): Cc1cccc(-n2nc3c(c2-c2ccn4ncc(C(N)=O)c4c2)CCC3)n1 [Example 6, 5-[2-(6-methylpyridin-2-yl)-2,4,5,6-tetrahydrocyclopenteno[c]pyrazol-3-yl]pyrazolo[1,5-a]pyridine-3-carboxamide]
- AUClast ([1]; IV, 1 mg/kg, whole blood): 578 ± 4 ng·h/mL
- Cl ([1]; IV, 1 mg/kg, whole blood): 28.4 ± 0.3 mL/min/kg
- Cmax ([1]; IV, 1 mg/kg, whole blood): 1163 ± 58 ng/mL
- F (bioavailability) [1]: 61.4 ± 9.5%
- F (bioavailability) ([1]; listed as Example VI): 61.4%
- AUClast ([1]; PO, 10 mg/kg, whole blood): 3586 ± 563 ng·h/mL
- Cmax ([1]; PO, 10 mg/kg, whole blood): 7440 ± 226 ng/mL
- T1/2 ([1]; PO, 10 mg/kg, whole blood): 27.6 ± 11.4 min
- T1/2 ([1]; PO, 10 mg/kg, whole blood, listed as Example VI): 27.6 min

Source: patent US20230303562A1, “PYRAZOLE COMPOUND AND PREPARATION METHOD THEREFOR AND USE THEREOF” (Sichuan Kelun-Biotech Biopharmaceutical Co., Ltd., priority 2020, published 2023)
